This note sets out measurements from ChEMBL document CHEMBL5120936, “S-Protected Cysteine Sulfoxide-Enabled Tryptophan-Selective Modification with Application to Peptide Lipidation” (ACS Med Chem Lett, 2022).

Common to all, as to format: functional, organism-based
Holding throughout (conditions): dose 500.0 µg/kg

For assay [1], the system named is Mus musculus. As to the kind of experiment: Hypoglycemic activity in sixteen hrs fasted wild type C57BL/6 mouse assessed as reduction in blood glucose level at 500 microg/kg, ip followed by oral glucose at 2 g/Kg and measured for 150 mins by OGTT.
Assay [2] relates to Mus musculus. As to the kind of experiment: Hypoglycemic activity in sixteen hrs fasted wild type C57BL/6 mouse assessed as reduction in blood glucose level at 500 microg/kg, ip followed by oral glucose at 2 g/Kg and measured for 120 mins by OGTT.
For assay [3], the system named is Mus musculus. Briefly: Hypoglycemic activity in sixteen hrs fasted wild type C57BL/6 mouse assessed as reduction in glucose concentration at 500 microg/kg, ip followed by oral glucose at 2 g/Kg and measured upto 150 mins by OGTT.
In assay [4] the test system is Mus musculus. Briefly: Hypoglycemic activity in sixteen hrs fasted wild type C57BL/6 mouse assessed as increase in insulin concentration at 500 microg/kg, ip followed by oral glucose at 2 g/Kg and measured upto 150 mins by OGTT.

The source made the active and inactive calls. No cut-off for these calls is given here.

Regarding `CCCCCCCCCCCCCCCC(=O)NCCOCCOCC(=O)N[C@@H](CSc1[nH]c2ccccc2c1C[C@H](NC(=O)[C@H](C)NC(=O)[C@@H](NC(=O)[C@H](Cc1ccccc1)NC(=O)[C@H](CCC(=O)O)NC(=O)[C@H](CCCCN)NC(=O)[C@H](C)NC(=O)[C@H](C)NC(=O)[C@H](CCC(N)=O)NC(=O)CNC(=O)[C@H](CCC(=O)O)NC(=O)[C@H](CC(C)C)NC(=O)[C@H](Cc1ccc(O)cc1)NC(=O)[C@H](CO)NC(=O)[C@H](CO)NC(=O)[C@@H](NC(=O)[C@H](CC(=O)O)NC(=O)[C@H](CO)NC(=O)[C@@H](NC(=O)[C@H](Cc1ccccc1)NC(=O)[C@@H](NC(=O)CNC(=O)[C@H](CCC(=O)O)NC(=O)[C@H](C)NC(=O)[C@@H](N)Cc1cnc[nH]1)[C@@H](C)O)[C@@H](C)O)C(C)C)[C@@H](C)CC)C(=O)N[C@@H](CC(C)C)C(=O)N[C@H](C(=O)N[C@@H](CCCCN)C(=O)NCC(=O)N[C@@H](CCCNC(=N)N)C(=O)NCC(=O)O)C(C)C)C(N)=O`, the result in the assay on Mus musculus [1] and in the assay on Mus musculus [2] was Active.

For the compound `CCCCCCCCCCCCCCCC(=O)NCCOCCOCCOCCOCCOCCOCC(=O)N[C@@H](CSc1[nH]c2ccccc2c1C[C@H](NC(=O)[C@H](C)NC(=O)[C@@H](NC(=O)[C@H](Cc1ccccc1)NC(=O)[C@H](CCC(=O)O)NC(=O)[C@H](CCCCN)NC(=O)[C@H](C)NC(=O)[C@H](C)NC(=O)[C@H](CCC(N)=O)NC(=O)CNC(=O)[C@H](CCC(=O)O)NC(=O)[C@H](CC(C)C)NC(=O)[C@H](Cc1ccc(O)cc1)NC(=O)[C@H](CO)NC(=O)[C@H](CO)NC(=O)[C@@H](NC(=O)[C@H](CC(=O)O)NC(=O)[C@H](CO)NC(=O)[C@@H](NC(=O)[C@H](Cc1ccccc1)NC(=O)[C@@H](NC(=O)CNC(=O)[C@H](CCC(=O)O)NC(=O)[C@H](C)NC(=O)[C@@H](N)Cc1cnc[nH]1)[C@@H](C)O)[C@@H](C)O)C(C)C)[C@@H](C)CC)C(=O)N[C@@H](CC(C)C)C(=O)N[C@H](C(=O)N[C@@H](CCCCN)C(=O)NCC(=O)N[C@@H](CCCNC(=N)N)C(=O)NCC(=O)O)C(C)C)C(N)=O`, the outcome in the assay on Mus musculus [1] and in the assay on Mus musculus [2] was Active.

As for `CC[C@H](C)[C@H](NC(=O)[C@H](Cc1ccccc1)NC(=O)[C@H](CCC(=O)O)NC(=O)[C@H](CCCCN)NC(=O)[C@H](C)NC(=O)[C@H](C)NC(=O)[C@H](CCC(N)=O)NC(=O)CNC(=O)[C@H](CCC(=O)O)NC(=O)[C@H](CC(C)C)NC(=O)[C@H](Cc1ccc(O)cc1)NC(=O)[C@H](CO)NC(=O)[C@H](CO)NC(=O)[C@@H](NC(=O)[C@H](CC(=O)O)NC(=O)[C@H](CO)NC(=O)[C@@H](NC(=O)[C@H](Cc1ccccc1)NC(=O)[C@@H](NC(=O)CNC(=O)[C@H](CCC(=O)O)NC(=O)[C@H](C)NC(=O)[C@@H](N)Cc1c[nH]cn1)[C@@H](C)O)[C@@H](C)O)C(C)C)C(=O)N[C@@H](C)C(=O)N[C@@H](Cc1c[nH]c2ccccc12)C(=O)N[C@@H](CC(C)C)C(=O)N[C@H](C(=O)N[C@@H](CCCCN)C(=O)NCC(=O)N[C@@H](CCCN=C(N)N)C(=O)NCC(=O)O)C(C)C`, the outcome in the assay on Mus musculus [3] and with Mus musculus [4] was Active.
